Measured values as given in article PMC12698583, “Efficacy of sulfonamides targeting malic enzyme in an animal model of Chagas disease” (Frontiers in Pharmacology, 2025).
Entries after “also recorded” stand apart in the source; their conditions may differ. Like-named read-outs stand apart in the source and are kept apart here.

Legend:
H9c2 rat cardiomyoblasts = system: H9c2 rat cardiomyoblasts; set-up: method as in Mercaldi et al. (2021) and Peña et al. (2015); settings: total host cells; ref Mercaldi et al. (2021) and Peña et al. (2015); cited from earlier work
[1] = molecular target: T1, T. cruzi malic enzyme (TcME) (Trypanosoma cruzi, UniProt Q4DJ68); set-up: method as in Mercaldi et al. (2021); settings: TcME (cytosolic isoform); ref Mercaldi et al. (2021); cited from earlier work
[2] = system: T. cruzi Dm28c strain intracellular form infecting H9c2 rat cardiomyoblasts; settings: cited from earlier work
[3] = system: T. cruzi Dm28c strain intracellular form infecting H9c2 rat cardiomyoblasts; experiment: T. cruzi intracellular image-based assay; assay type: cell-based, Trypanosoma cruzi
Procedure: (§1) Tested compounds were dissolved and serially diluted in dimethylsulfoxide (DMSO) using a half-log dilution across six concentrations. Intermediate plates were prepared by diluting compounds 1:25 in DMEM (Dulbecco’s Modified Eagle Medium) with 10% FBS (Fetal Bovine Serum). The assay was based on [Fredo Naciuk et al. (2020)], with minor modifications. Briefly, T. cruzi trypomastigotes (from LLC-MK2 cultures, 6 days post-infection) were used to infect H9c2 rat cardiomyoblasts overnight (16–18 h) at MOI 1. After washing with PBS, cells were trypsinized and resuspended in DMEM at 2.3 × 10^4 cells/mL. Then, 65 μL per well was plated in 384-well plates and incubated for 24 h (37 °C, 5% CO2, >95% humidity). Subsequently, 7.5 μL of compound solution was added (final [DMSO] 0.4%). After 72 h of treatment, cells were fixed with 4% PFA and stained with Hoechst 33342 (4 μg/mL). Six images per well were acquired using the Operetta system (PerkinElmer) and analyzed with Columbus software to quantify infected cells (≥3 cytoplasmic parasite spots).

[4] = molecular target: T1, T. cruzi malic enzyme (TcME); experiment: Malic enzyme (TcME) inhibition assay, diaphorase/resazurin coupled; assay type: biochemical
Procedure: The TcME inhibition assay was performed as previously described, with minor modifications ([Mercaldi et al., 2021]). Briefly, a coupled assay with the enzyme diaphorase and resorufin fluorescence (Ex 545 nm/Em 600 nm) was recorded every 30 s for 6 min in a CLARIOstar plate reader (BMG LabTech). The final concentrations of reagents in the assay were: 0.02 mM NADP+, 0.4 mM L-aspartate, 0.45 nM TcMEc, 1 U/mL diaphorase, and 10 μM resazurin, all in 50 mM Tris-HCl buffer containing 50 mM NaCl and 2 mM MnCl2 at pH 7.5. The reaction was initiated by adding 1.32 mM L-malate.

[5] = Host cell cytotoxicity in the image-based assay (total host cells); settings: rat, H9c2 rat cardiomyoblasts (infected with T. cruzi), 72 h treatment
Procedure: as §1

[6] = Chemical stability at physiological pHs; assay type: physicochemical; settings: basic pH, 37 °C, 24 h
Procedure: These conditions simulate stomach acidity, plasma neutrality, and intestinal basicity.
For the chemical stability experiment, the compounds were evaluated under the same conditions with an additional incubation at 37 °C for a period of 24 h. The analysis was performed using an analytical method developed and validated by high-performance liquid chromatography with UV detection (HPLC-UV). Compounds were quantified in different pH media by comparing the areas where the substances were completely soluble with those in the reaction media. The experiments were performed in a triplicate.
These conditions simulate stomach acidity, plasma neutrality, and intestinal basicity. […] For the chemical stability experiment, the compounds were evaluated under the same conditions with an additional incubation at 37°C for a period of 24 hours. The analysis was performed using an analytical method developed and validated by high-performance liquid chromatography with UV detection (HPLC-UV). Compounds were quantified in the different pH media by comparing the areas where the substances were completely soluble with those in the reaction media. The experiments were performed in triplicate.

T1 sequence (Q4DJ68 entry or part of it): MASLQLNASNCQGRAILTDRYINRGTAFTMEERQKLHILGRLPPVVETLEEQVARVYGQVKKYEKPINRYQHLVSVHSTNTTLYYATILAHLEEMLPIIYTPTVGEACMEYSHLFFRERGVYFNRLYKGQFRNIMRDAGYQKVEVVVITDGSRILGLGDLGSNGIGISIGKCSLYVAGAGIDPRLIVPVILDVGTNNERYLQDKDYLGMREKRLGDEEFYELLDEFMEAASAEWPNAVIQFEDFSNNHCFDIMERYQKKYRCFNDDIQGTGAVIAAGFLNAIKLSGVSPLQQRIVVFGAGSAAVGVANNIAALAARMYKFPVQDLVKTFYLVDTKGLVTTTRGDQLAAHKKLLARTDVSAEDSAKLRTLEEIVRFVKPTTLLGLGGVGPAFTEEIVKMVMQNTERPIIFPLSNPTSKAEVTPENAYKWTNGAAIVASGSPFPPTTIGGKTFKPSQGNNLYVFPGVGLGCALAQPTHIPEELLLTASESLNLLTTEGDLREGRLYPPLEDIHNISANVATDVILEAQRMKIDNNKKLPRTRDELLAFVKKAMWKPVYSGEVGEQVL

SMILES	activity against T. cruzi intracellular forms (in words) [3]	activity against TcME (in words) [4]	other results
COc1ccc(NS(=O)(=O)c2cccc(NC(=O)c3cc(F)cc(F)c3)c2)cc1 [TCMDC-143108]	–	–	CC50 (H9c2 rat cardiomyoblasts): > 42000 nM; IC50 [1]: 80 nM; SI ([2]; Selectivity index, ref Mercaldi et al. (2021) and Peña et al. (2015)): > 84; EC50 ([2]; host cells infected by T. cruzi amastigotes, ref Peña et al. (2015)): 500 nM
COc1ccc(NS(=O)(=O)c2cccc(N)c2)cc1 [compound 9, 3-amino-N-(4-methoxyphenyl)benzenesulfonamide]	not active	not active	–
CC(C)Oc1ccc(NS(=O)(=O)c2cccc([N+](=O)[O-])c2)cc1 [compound 6, N-(4-isopropoxyphenyl)-3-nitrobenzenesulfonamide]	not active	not active	–
CC(C)Oc1ccc(NS(=O)(=O)c2ccc(NC(=O)c3cnccn3)cc2)cc1 [AC-R010, N-(4-(N-(4-isopropoxyphenyl)sulfamoyl)phenyl)pyrazine-2-carboxamide]	Inactive; also recorded: didn´t affect the parasite	not active	–
COc1ccc(NS(=O)(=O)c2ccc(NC(=O)c3cnccn3)cc2)cc1 [AC-R009, N-(4-(N-(4-methoxyphenyl)sulfamoyl)phenyl)pyrazine-2-carboxamide]	Inactive; also recorded: didn´t affect the parasite	not active	–
CC(C)Oc1ccc(NS(=O)(=O)c2cccc(NC(=O)c3cc(F)cc(F)c3)c2)cc1 [AC-M109, 3,5-difluoro-N-(3-(N-(4-isopropoxyphenyl)sulfamoyl)phenyl)benzamide]	–	–	SI ([3]; Selectivity index): 318; CC50 at 72 h [5]: 12000 nM; Chemical stability [6]: ≤ 40%; IC50 ([4]; concentration necessary to inhibit 50% of T. cruzi Malic enzyme enzymatic activity): 860 nM
CC(C)Oc1ccc(NS(=O)(=O)c2cccc(N)c2)cc1 [compound 10, 3-amino-N-(4-isopropoxyphenyl)benzenesulfonamide]	not active	not active	–
COc1ccc(NS(=O)(=O)c2cccc([N+](=O)[O-])c2)cc1 [compound 5, N-(4-methoxyphenyl)-3-nitrobenzenesulfonamide]	not active	not active	–
COc1ccc(NS(=O)(=O)c2ccc(NC(=O)c3cc(F)cc(F)c3)cc2)cc1 [AC-R001, 3,5-difluoro-N-(4-(N-(4-methoxyphenyl)sulfamoyl)phenyl)benzamide]	Inactive; also recorded: didn´t affect the parasite	not active	–
